Measurements taken from ChEMBL document CHEMBL4049435, “Development of a Series of Kynurenine 3-Monooxygenase Inhibitors Leading to a Clinical Candidate for the Treatment of Acute Pancreatitis” (J Med Chem, 2017).
pIC50, pKi: −log10 of the molar value.

Columns and labels:
[1] = Lipophilicity, log D of the compound at pH 7.4 by RP-HPLC analysis; type: physicochemical; details: buffer
serum albumin = serum albumin (Homo sapiens, UniProt P02768); assay: Binding affinity to human serum albumin by HPLC analysis; type: ADME; details: read-out: PB (converted)
serum albumin, sequence (P02768 whole entry): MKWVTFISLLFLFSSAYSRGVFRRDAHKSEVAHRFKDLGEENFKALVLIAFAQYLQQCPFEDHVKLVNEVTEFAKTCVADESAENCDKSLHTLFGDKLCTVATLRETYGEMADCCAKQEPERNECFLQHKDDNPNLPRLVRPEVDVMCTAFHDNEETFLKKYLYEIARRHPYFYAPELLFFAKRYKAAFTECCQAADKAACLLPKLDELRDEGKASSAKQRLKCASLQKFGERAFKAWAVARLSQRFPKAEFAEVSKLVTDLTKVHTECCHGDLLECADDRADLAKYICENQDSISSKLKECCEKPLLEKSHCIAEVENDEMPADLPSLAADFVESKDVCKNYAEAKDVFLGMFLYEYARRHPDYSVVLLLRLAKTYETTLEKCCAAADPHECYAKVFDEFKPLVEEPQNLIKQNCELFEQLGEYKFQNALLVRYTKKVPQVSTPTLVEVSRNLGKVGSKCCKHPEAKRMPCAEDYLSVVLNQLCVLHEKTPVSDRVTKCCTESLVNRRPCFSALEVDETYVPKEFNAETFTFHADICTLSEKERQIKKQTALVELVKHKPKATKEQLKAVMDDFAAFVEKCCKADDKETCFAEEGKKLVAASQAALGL

[2] = Permeability of the compound by PAMPA; type: physicochemical; details: read-out: permeability
[3] = Clearance in Han-Wistar rat blood at 1 mg/kg, iv by LC-MS/MS analysis; type: ADME, organism-based; details: whole blood
[4] = Protein binding in Han-Wistar rat plasma at 1 mg/kg, iv by LC-MS/MS analysis; type: ADME, organism-based; details: read-out: PPB (converted)
[5] = Stability of the compound in presence of light measured after 12 hrs; type: physicochemical; details: read-out: Stability
[6] = Half life in Han-Wistar rat at 1 mg/kg, iv by LC-MS/MS analysis; type: ADME, organism-based; details: in vivo
[7] = Half life of the compound at pH 6 under oxidative condition; type: physicochemical
[8] = Volume of distribution at steady state in Han-Wistar rat at 1 mg/kg, iv by LC-MS/MS analysis; type: ADME, organism-based; details: in vivo, read-out: Vdss
[9] = Protein binding in human plasma; type: ADME, cell-free; details: read-out: PPB (converted)
[10] = Solubility of the compound in saline measured after 24 hrs; type: physicochemical
[11] = molecular target: T1, Kynurenine 3-monooxygenase (Homo sapiens, UniProt O15229)
Target sequence in this assay (O15229 whole entry): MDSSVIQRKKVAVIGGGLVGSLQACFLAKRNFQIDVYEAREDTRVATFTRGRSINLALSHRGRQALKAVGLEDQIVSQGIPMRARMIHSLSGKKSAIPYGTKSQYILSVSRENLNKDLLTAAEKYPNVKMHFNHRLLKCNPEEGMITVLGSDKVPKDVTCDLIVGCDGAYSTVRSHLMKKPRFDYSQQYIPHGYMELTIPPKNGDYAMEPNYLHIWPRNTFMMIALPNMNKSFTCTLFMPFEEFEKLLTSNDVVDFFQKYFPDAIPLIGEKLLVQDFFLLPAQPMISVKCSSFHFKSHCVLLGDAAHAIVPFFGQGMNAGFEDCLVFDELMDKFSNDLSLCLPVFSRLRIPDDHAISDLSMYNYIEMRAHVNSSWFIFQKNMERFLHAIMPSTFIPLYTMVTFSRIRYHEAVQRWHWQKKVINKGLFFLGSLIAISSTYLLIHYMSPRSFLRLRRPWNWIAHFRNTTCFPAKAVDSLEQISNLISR

[12] = molecular target: T1, Kynurenine 3-monooxygenase; assay: Inhibition of full length human GST-tagged KMO expressed in baculovirus infected Sf9 insect cell membranes using kynurenine as substrate measured after 1 hr by RapidFire high-throughput mass spectrometric analysis
Target sequence in this assay (O15229 whole entry): as above

[13] = molecular target: T1, Kynurenine 3-monooxygenase; remark: listed apart in the source
Target sequence in this assay (O15229 whole entry, looked up): as the sequence (O15229 whole entry) above

Structure (SMILES) | logD [1] | fraction unbound (serum albumin) | Papp [2] [×10⁻⁶ cm/s] | fraction unbound [9] | also measured
C[C@H](Oc1cc2oc(=O)n(CCC(=O)O)c2cc1Cl)c1ccccn1.NC(CO)(CO)CO | 1.79 | 0.084 | < 0.3 |  | 
Cc1ccc([C@@H](C)Oc2cc3onc(CCC(=O)O)c3cc2Cl)nc1 |  |  |  |  | clearance [3]: 1.1 mL/min/kg; fraction unbound [4]: 0.009; remaining at 12 h [5]: 96.5%; half-life [6]: 3.6 h; half-life [7]: > 1000 h; Vd [8]: 0.31 L/kg
Cc1ccc([C@@H](C)Oc2cc3onc(CCC(=O)O)c3cc2Cl)nc1.NC(CO)(CO)CO | 2.42 | 0.016 |  | 0.003 | solubility at 24 h [10]: > 860 µg/mL
Cc1ccc([C@@H](C)Oc2cc3oc(=O)n(CCC(=O)O)c3cc2Cl)nc1.NC(CO)(CO)CO | 2.02 |  | 2.2 | 0.022 | 
C[C@@H](Oc1cc2onc(CCC(=O)O)c2cc1Cl)c1ccccn1.NC(CO)(CO)CO | 1.99 |  |  | 0.022 | solubility at 24 h [10]: > 7440 µg/mL
NC(CO)(CO)CO.O=C(O)CCn1c(=O)oc2cc(OCC3CCC3)c(Cl)cc21 | 2.9 | 0.019 | 1.2 | 0.019 | 
C[C@@H](Oc1cc2oc(=O)n(CCC(=O)O)c2cc1Cl)c1ccccn1.NC(CO)(CO)CO | 1.71 | 0.067 | 0.3 to 2 | 0.119 | solubility at 24 h [10]: > 9500 µg/mL
Cc1ccc([C@@H](C)Oc2cc3onc(CCC(=O)O)c3cc2Cl)nn1 | 2.97 | 0.108 |  | 0.071 | clearance [3]: 12 mL/min/kg; fraction unbound [4]: 0.067; remaining at 12 h [5]: 85.2%; half-life [6]: 1.5 h; pIC50 [11]: 8.50; half-life [7]: > 1000 h; Vd [8]: 1.1 L/kg
NC(CO)(CO)CO.O=C(O)CCn1c(=O)oc2cc(OCCN3CCCC3)c(Cl)cc21 | -0.26 | 0.849 | < 0.3 |  | 
Cc1ccnc([C@@H](C)Oc2cc3oc(=O)n(CCC(=O)O)c3cc2Cl)c1.NC(CO)(CO)CO | 2.15 | 0.056 | < 0.3 |  | 
O=C(O)CCn1c(=O)oc2cc(OCc3ccccc3)c(Cl)cc21 | 2.71 | 0.017 |  |  | 
C[C@@H](Oc1cc2oc(=O)n(CCC(=O)O)c2cc1Cl)c1ccc(F)cn1.NC(CO)(CO)CO | 1.98 | 0.06 | 3.1 |  | 
C[C@@H](Oc1cc2oc(=O)n(CCC(=O)O)c2cc1Cl)c1ncco1.NC(CO)(CO)CO | 1.11 | 0.227 | < 0.3 |  | 
C[C@@H](Oc1cc2sc(=O)n(CCC(=O)O)c2cc1Cl)c1ccccn1 | 1.81 |  |  |  | 
Cc1ccc([C@@H](C)Oc2cc3onc(CCC(=O)O)c3cc2Cl)nn1.NC(CO)(CO)CO |  |  |  |  | solubility at 24 h [10]: 230 µg/mL
CCc1cc2oc(=O)n(CCC(=O)O)c2cc1Cl.NC(CO)(CO)CO | 1.94 | 0.026 | 1 to 2.2 | 0.013 | 
NC(CO)(CO)CO.O=C(O)CCn1c(=O)oc2cc(OCc3ccccn3)c(Cl)cc21 | 1.32 | 0.126 | 1.1 | 0.074 | pIC50 [12]: 8.50; pIC50 [11]: 5.30
C[C@@H](Oc1cc2c(cc1Cl)N(CCC(=O)O)C(=O)CO2)c1ccccn1 | 1.56 |  |  | 0.075 | 
Cc1cccc([C@@H](C)Oc2cc3oc(=O)n(CCC(=O)O)c3cc2Cl)n1.NC(CO)(CO)CO | 2.12 | 0.068 | 2.1 |  | 
O=C(O)CCn1c(=O)oc2cc(OCc3ccccn3)c(Cl)cc21 [listing 1 of 2 here] |  |  |  |  | pKi [12]: 9.00
COc1cc2oc(=O)n(CCC(=O)O)c2cc1Cl |  | 0.11 | < 0.3 |  | 
C[C@@H](Oc1cc2oc(=O)n(CCC(=O)O)c2cc1Cl)c1ccccn1 [listing 1 of 2 here] |  |  |  |  | T1/2 [13]: 2 h
C[C@@H](Oc1cc2onc(CCC(=O)O)c2cc1Cl)c1ccc(Cl)cn1 |  |  |  |  | clearance [3]: 0.35 mL/min/kg; fraction unbound [4]: 0.003; remaining at 12 h [5]: 99.5%; half-life [6]: 8.7 h; half-life [7]: > 1000 h; Vd [8]: 0.26 L/kg

Structure (SMILES) | logD [1] | fraction unbound (serum albumin) | Papp [2] [×10⁻⁶ cm/s] | fraction unbound [9] | also measured
O=C(O)CCn1c(=O)oc2cc(OC3CC3)c(Cl)cc21 |  |  |  |  | clearance [3]: 9.4 mL/min/kg; fraction unbound [4]: 0.097; remaining at 12 h [5]: 100%; half-life [6]: 0.39 h; half-life [7]: > 1000 h; Vd [8]: 0.29 L/kg
C[C@@H](Oc1cc2onc(CCC(=O)O)c2cc1Cl)c1ccc(F)cn1 | 2.47 | 0.017 |  |  | 
Cc1cc2oc(=O)n(CCC(=O)O)c2cc1Cl |  |  |  | 0.024 | clearance [3]: 4.7 mL/min/kg; fraction unbound [4]: 0.045; remaining at 12 h [5]: 100%; half-life [6]: 3.7 h; half-life [7]: > 1000 h; Vd [8]: 0.52 L/kg
NC(CO)(CO)CO.O=C(O)CCn1c(=O)oc2cc(OCC3CC3)c(Cl)cc21 | 2.09 | 0.038 | 1.9 | 0.04 | pIC50 [12]: 8.00; pIC50 [11]: 5.80; solubility at 24 h [10]: > 2060 µg/mL
Cc1cc2oc(=O)n(CCC(=O)O)c2cc1Cl.NC(CO)(CO)CO | 1.26 | 0.05 | 0.3 to 1 |  | pIC50 [11]: 6.20; solubility at 24 h [10]: > 127000 µg/mL
CCOc1cc2oc(=O)n(CCC(=O)O)c2cc1Cl |  |  |  |  | clearance [3]: 16 mL/min/kg; fraction unbound [4]: 0.184; remaining at 12 h [5]: 99.5%; half-life [6]: 0.43 h; half-life [7]: > 1000 h; Vd [8]: 0.36 L/kg
NC(CO)(CO)CO.O=C(O)CCn1c(=O)oc2cc(Cl)c(Cl)cc21 |  |  |  |  | solubility at 24 h [10]: 270 µg/mL
CC(Oc1cc2oc(=O)n(CCC(=O)O)c2cc1Cl)c1ccccn1.NC(CO)(CO)CO (centres undefined) | 1.86 | 0.129 | < 0.3 | 0.183 | 
C[C@@H](Oc1cc2oc(=O)n(CCC(=O)O)c2cc1Cl)c1ncccn1.NC(CO)(CO)CO | 0.83 | 0.409 | < 0.3 |  | 
C[C@@H](Oc1cc2oc(=O)n(CCC(=O)O)c2cc1Cl)c1cccnn1 | 0.83 | 0.409 | < 0.3 | 0.319 | pIC50 [12]: 8.90; pIC50 [11]: 6.20
C[C@@H](Oc1cc2oc(=O)n(CCC(=O)O)c2cc1Cl)c1ccc(Cl)cn1.NC(CO)(CO)CO | 2.65 | 0.021 | 6 | 0.01 | 
C[C@@H](Oc1cc2cnn(CCC(=O)O)c2cc1Cl)c1ccccn1 | 1.7 |  |  | 0.099 | 
COCCOc1cc2oc(=O)n(CCC(=O)O)c2cc1Cl.NC(CO)(CO)CO | 0.88 | 0.558 | < 0.3 | 0.293 | 
O=C(O)CCn1c(=O)oc2cc(OCC3CC3)c(Cl)cc21 |  |  |  |  | clearance [3]: 4.1 mL/min/kg; fraction unbound [4]: 0.098; remaining at 12 h [5]: 105%; half-life [6]: 0.68 h; half-life [7]: > 1000 h; Vd [8]: 0.26 L/kg
CC(C)Cc1cc2oc(=O)n(CCC(=O)O)c2cc1Cl.NC(CO)(CO)CO | 3.03 | 0.008 | < 1 |  | 
NC(CO)(CO)CO.O=C(O)CCn1c(=O)oc2cc(OC3CC3)c(Cl)cc21 | 1.64 | 0.057 | 1.5 | 0.031 | pIC50 [12]: 8.50; pIC50 [11]: 5.90; solubility at 24 h [10]: > 2400 µg/mL
O=C(O)CCn1c(=O)oc2cc(Cl)c(Cl)cc21 | 1.61 | 0.037 | 2.4 | 0.018 | clearance [3]: 4.3 mL/min/kg; fraction unbound [4]: 0.083; remaining at 12 h [5]: 41%; half-life [6]: 4.3 h; half-life [7]: 334 h; Vd [8]: 0.28 L/kg
C[C@@H](Oc1cc2ccn(CCC(=O)O)c2cc1Cl)c1ccccn1 | 2.17 |  |  |  | 
O=C(O)CCn1c(=O)oc2cc(OCc3ccccn3)c(Cl)cc21 [listing 2 of 2 here] |  |  |  |  | T1/2 [13]: 0.5 h
C[C@@H](Oc1cc2onc(CCC(=O)O)c2cc1Cl)c1ccc(Cl)cn1.NC(CO)(CO)CO | 2.91 | 0.01 |  | 0.002 | solubility at 24 h [10]: > 620 µg/mL
C[C@@H](Oc1cc2oc(=O)n(CCC(=O)O)c2cc1Cl)c1ccccn1 [listing 2 of 2 here] |  |  |  |  | clearance [3]: 16.8 mL/min/kg; fraction unbound [4]: 0.215; remaining at 12 h [5]: 99.2%; half-life [6]: 5.6 h; half-life [7]: > 1000 h; Vd [8]: 2.96 L/kg
CCOc1cc2oc(=O)n(CCC(=O)O)c2cc1Cl.NC(CO)(CO)CO | 1.49 | 0.113 | < 1 | 0.042 | solubility at 24 h [10]: > 1880 µg/mL
